# Results taken from ChEMBL document CHEMBL3507680, “University of Dundee, Gates Library screen for HepG2 cell viability”.
# Experiment: Human HepG2 cell viability assay in 384 well format
# Type: toxicity, cell-based
# Set-up: dose 125 nL, time 70.5 hour; cytotoxicity at 70.5 h: concentration not given beside the values
# Conditions: HepG2 cells, read-out: Inhibition
row,SMILES,cytotoxicity at 70.5 h [%]
1,O=C(Cc1ccsc1)N1CCC(c2noc(-c3ccncc3)n2)CC1,-0.304
2,COc1cc(OC)c(-c2nc3c([nH]2)c(C2CC2)nn3C)cc1OC,-3.1
3,CN1CC(=O)N(c2ccccc2)CC12CCN(Cc1cccnc1)C2 (stereo unspecified),-11.3
4,COCCN1CCCC12CCCN(c1nncs1)C2 (stereo unspecified),-8.64
5,O=C([C@H]1CCS(=O)(=O)[C@@H]2CN(Cc3ccc(F)cc3)C[C@H]12)N1CCCC1,-4.67
6,Cn1ccc(C(=O)N2C[C@H]3CCC[C@@]3(COCc3cccnc3)C2)n1,-0.791
7,Cc1cc(CN2CCCC(C)(CO)C2)ccc1F (stereo unspecified),-6.61
8,CC(=O)N1CCO[C@@H]2CN(Cc3ccccc3Cl)C[C@@H]2C1,-5.68
9,COCCN1CC[C@H]2CN(c3cc(OC)ncn3)C[C@@H]2C1=O,24.4
10,COc1ccccc1CN1C[C@@H](F)[C@@H](OCc2nc3ccccc3[nH]2)C1,-0.935
11,CN(C)S(=O)(=O)N1C[C@@H]2CC[C@H](C1)N(Cc1ccc3nsnc3c1)C2,5.66
12,O=c1[nH]nc2c(S(=O)(=O)N3CCCC3)cccn12,-4.02
13,O=C1COC2(CCN(CC3CC3)CC2)CN1c1ccsc1,-8.69
14,CN(Cc1cnn(C)c1)C(=O)CCC(=O)c1ccc2c(c1)OCCO2,-82.6
15,CC(C)c1nnc(CCC(=O)N2CCOC(c3cnccn3)C2)o1 (stereo unspecified),-5.45
16,CCc1csc(CNc2nc3c(s2)c(C)nn3C)n1,10.5
17,COc1ncccc1C(=O)N1CCCC1c1c(C)nn(C)c1Cl (stereo unspecified),-0.671
18,COc1ccc(C2SC(C)=Nc3c2c(=O)[nH]n3C2CCCC2)cc1O (stereo unspecified),-18.9
19,FC1(F)CCN(Cc2ccncc2)CC12CCN(c1cccnc1)C2 (stereo unspecified),2.6
20,CC1=N[C@@]2(CC[C@@H]3CNC[C@@H]32)C(=O)N1CC(C)C,31.4
21,O=C(C1CC2(CCNCC2)CN1)N1CCN(c2ccccc2)CC1 (stereo unspecified),14.5
22,Cc1cnc(CN(C)C2CCN(Cc3ccccc3C#N)C2)o1 (stereo unspecified),-5.36
23,Cc1nc(CN(C)Cc2cc3c(cc2OC(F)F)OCO3)oc1C,4.89

row,SMILES,cytotoxicity at 70.5 h [%]
1,O=C1N(Cc2ccc(F)c(F)c2)CCCC1(O)CNCC1CCCCC1 (stereo unspecified),18.7
2,C=C(C)COc1ccccc1C(=O)N1CCC(C(=O)NCC)C1 (stereo unspecified),-0.0263
3,CCCS(=O)(=O)N1CCC2(CC1)CN(CC1CCOC1)c1ccccc12 (stereo unspecified),3.95
4,Brc1cccc(-c2nnc(CNCCn3cccn3)o2)c1,-10.8
5,COCCC(=O)NCc1cccnc1-n1cnc2ccccc21,6.94
6,CC(C)c1nccc([C@@H]2C[C@@H]3CCN(Cc4ccoc4)C[C@H]3O2)n1,-4.41
7,COc1cc(C)cc(C(C(=O)O)N(C)Cc2ccncc2C)c1OC (stereo unspecified),4.18
8,CN(C)S(=O)(=O)N1C[C@@H](OCc2ccccn2)[C@H]2OCCC[C@H]21,-3.83
9,CCCn1nccc1C(=O)N1CCN(C(=O)C2CC2)[C@@H]2CS(=O)(=O)C[C@@H]21,11.1
10,CCCN1CCC(N2CCC(Cn3cc(C4CC4)nn3)CC2)CC1,-8.35
11,O=C(CNC(=O)N1CCc2c([nH]c3ccc(Cl)cc23)C1)NCCCO,-18.9
12,Fc1cc(F)cc(CN2CCC(c3cc4ncccc4cn3)CC2)c1,1.34
13,CN(C)c1ccc(NC(=O)c2cccc(N(C)C)c2)nc1,15.4
14,O=C(c1ccc(N2CCCC2)nn1)N1CCCc2ccc(F)cc21,8.25
15,O=C(c1ccccn1)N1CCC(c2nc(O)cc(-c3ccncc3)n2)C1 (stereo unspecified),-5.15
16,COCc1ccccc1C(=O)N1CCN(C2=NCC(C)(C)S2)CC1,-5.17
17,Cc1ccc(-n2nnc(C(=O)O)c2C)c(C)c1,0.943
18,O=c1c(NCc2ccco2)c(NCC(O)CN2CCOCC2)c1=O (stereo unspecified),-6.2
19,C[C@]1(O)CN(Cc2ncccc2F)CC[C@@H]1Oc1ccccc1,-7.87
20,Cc1nc(C2CCCN2CC(=O)NCCOc2cccc(F)c2)no1 (stereo unspecified),19.2
21,CN(c1ccc(CNC(=O)c2ccc(O)nc2)cc1)C1CCCCC1,0.503
22,O=C1C(N2CCOCC2)CCCN1Cc1cccc(C(F)(F)F)c1 (stereo unspecified),-17.4
23,CCCn1nc(-c2nc(Cc3ccc(OC)cc3)no2)ccc1=O,-8.43

row,SMILES,cytotoxicity at 70.5 h [%]
1,COCCN(C)C[C@H]1C[C@@H](CO)CN(C(=O)c2ccn(C)c(=O)c2)C1,-8.04
2,Cn1cc(S(=O)(=O)NC(=O)C2(c3cccc(Cl)c3)CC2)cn1,-10.1
3,CCCn1ncnc1C(C)NC(=O)CC1CCN(C(C)C)CC1 (stereo unspecified),-4.86
4,CCn1cc(NC(=O)CN2CCC(Oc3ccc(F)cc3)CC2)c(C)n1,5.01
5,Cc1cccc(-c2noc(CN3CCc4nn(C)c(=O)cc4C3)n2)c1,8.08
6,CCOc1ccc(CC(=O)N2C[C@H](C3CC3)[C@@H](N)C2)cc1,37.4
7,Fc1cnc(N2CCCn3c(CN4CCOCC4)nnc3C2)nc1,25.5
8,CC(Nc1cccc2c1OCCO2)C(=O)NC(N)=O (stereo unspecified),-2.31
9,Cc1cc(C)c(CNC(=O)NCCNc2ccccn2)c(=O)[nH]1,-9.53
10,CCn1[nH]c(C)c2c(C(F)(F)C(F)(F)F)cc(=O)nc1-2,-1.83
11,c1cc2c(cc1CN1CCN(Cc3noc(C4CC4)n3)CC1)OCO2,-2.86
12,c1ccc(C[C@H]2CN(Cc3nccs3)CC[C@H]2OCC2CC2)cc1,-11.5
13,CCN(C)C(=O)c1cccc(S(=O)(=O)NCCc2nc(C)cc(=O)[nH]2)c1,-22.4
14,O=C(NC1CCN(Cc2cccc3c2OCCO3)CC1)c1cccs1,0.406
15,CC(c1ccco1)N(C(=O)COc1ccc(C#N)cc1)C1CC1 (stereo unspecified),-6.31
16,COCCCNC(=O)c1cn(C(C)C)cc2c(=O)[nH]nc1-2,-9.87
17,CNc1nc(C(=O)N2CCCN(c3ccnc(C)c3)CC2)cs1,-5.86
18,COCC(=O)N1C[C@@H](c2cc(O)nc(C)n2)[C@H](c2ccccc2F)C1,13
19,N#Cc1ccccc1OCCN1CCCCC1C(=O)N1CCOCC1 (stereo unspecified),7.77
20,Cc1ncc(CN2CCC(n3cc(-c4ccc(F)cc4)nn3)CC2)cn1,-2.17
21,O=C(CCNC(=O)c1ccoc1)Nc1c(F)cccc1F,-1.23
22,CC(C)C(=O)N1CCC([C@@H]2C[C@H](C(F)F)n3ncnc3N2)CC1,9.09
23,CC(C)n1ccnc1C1CCCN(c2ccncc2F)C1 (stereo unspecified),-5.94

row,SMILES,cytotoxicity at 70.5 h [%]
1,CCN1C(=O)CC(c2ccccc2)C12CCN(CC1CCOCC1)CC2 (stereo unspecified),-8.46
2,NC(=O)CN(CC(=O)NCc1cccc(Cl)c1)C1CCCC1,-11.2
3,CCOCC(O)CN1CCN(C(=O)c2cccc(F)c2)CC1 (stereo unspecified),-7.93
4,Cc1cc(C)c2c(c1)C(NC(=O)CSCC(N)=O)CCO2 (stereo unspecified),-9.85
5,O=C([C@H]1CCCO1)N1CC[C@@H](O)[C@@H]1Cc1ccccc1,-8.36
6,Cc1nnc(N2CCCC3(CN(Cc4ccc(C)s4)CCO3)C2)o1 (stereo unspecified),-8.9
7,CCc1nccn1-c1cncc(C2CCCN2Cc2cccnc2)n1 (stereo unspecified),-5.1
8,CCn1cc(S(=O)(=O)NC(=O)CCc2c[nH]c3ccccc23)cn1,-0.706
9,c1cnc2[nH]c(C3CCCC3)c(CN3CCCCC3)c2c1,-7.43
10,CC1CCCN(Cc2csc(-c3ncccn3)n2)CC1 (stereo unspecified),9.27
11,c1cncc(CN2CC[C@H]3O[C@@H](COCC4CCOCC4)CC[C@H]32)c1,-7.03
12,CC(C)CCN1CCc2[nH]nc(C(=O)N3CCCC3C)c2C1 (stereo unspecified),-6.21
13,CC(C)Oc1ncccc1CNC(=O)c1cc[nH]n1,-7.86
14,CC(C)c1cc(NCC(O)c2ccncc2)n2nccc2n1 (stereo unspecified),14.4
15,COc1ccc(NCC(=O)NCC(=O)N2CCCC2)c(C(F)(F)F)c1,-2.2
16,CN1[C@H]2CC[C@@H]1CN(C(=O)c1nnc3n1CCCCC3)CC2,-9.52
17,Cc1n[nH]c(C)c1CNc1nc(-c2ccco2)nc2c1CCNCC2,5.99
18,COc1ccc(CNCC2CNc3cc(C)nn3C2)cn1 (stereo unspecified),-2.49
19,CCc1cc(N2CCC3(CCCNC3=O)C2)nc(N2CCOCC2)n1 (stereo unspecified),-4.73
20,NCC(=O)N1CCCC1c1nccnc1Nc1ncccn1 (stereo unspecified),-1.95
21,Cn1cc(-c2cnc(N3CCCC3)nc2)cc1C(=O)O,1.36
22,Cc1nc(C(=O)N(CC2CCCO2)c2ccncc2)cs1 (stereo unspecified),-16.6
23,COCCN1CCC(CN(CC2CCCO2)C(=O)Cc2cccs2)CC1 (stereo unspecified),-4.23

row,SMILES,cytotoxicity at 70.5 h [%]
1,COCc1c(Cl)cccc1NC(=O)CNC(=O)C(C)(C)C,-4.66
2,CCn1ncc2c1CCCC2NCc1cccc2c1OCCCO2 (stereo unspecified),-0.304
3,CCOc1ccc(OCC)c(NCc2cc(C)on2)c1,8.35
4,COc1ccc(C(=O)N2CC(=O)N(CC3CC3)CC(O)C2)cc1 (stereo unspecified),-4
5,Cc1ccc(N2CCCC(NCc3ccsc3)C2)nn1 (stereo unspecified),-4.89
6,Cn1cc(Cl)c(CN(Cc2ccsc2)CC2CCCO2)n1 (stereo unspecified),-5.58
7,O=C(NCCc1ccccc1)N1CCC(C2OCCO2)CC1,-4.29
8,CCN1CCO[C@@H]2CN(C(=O)NCc3ccccc3)CC[C@@H]2C1,-4.68
9,CC(O)CN(Cc1cccc(C(=O)N(C)C)c1)c1ccccc1 (stereo unspecified),-3.2
10,CCc1nc(C)c(C(C)N(C)CCc2ccncc2)s1 (stereo unspecified),0.87
11,COc1ncccc1NC(=O)N(CC(C)C)C1CC1,-8.09
12,CC(C)CS(=O)(=O)N1C[C@H]2C[C@H](C(=O)N3CCN(C)CC3)[C@@H](C1)O2,-3.23
13,O=C(c1ccoc1)N1CCOC2(COCCN(CC3CC3)C2)C1 (stereo unspecified),-1.92
14,O=C(NCC(F)(F)C(F)F)c1cccnc1,-3.25
15,Cc1ccc(CN2CCc3ncnc(-c4ccncc4)c3CC2)o1,-7.23
16,Cc1ccc(F)c(OC2CCCN(c3cnn(C)c3)C2=O)c1 (stereo unspecified),-3.77
17,COCc1cncc2c1CCN(C(=O)c1ccc(C#N)cc1)C2,-10.3
18,Cc1cnc(N2CCc3onc(COc4cccnc4)c3C2)nc1,-3.25
19,CC(C)c1n[nH]c(C2CN(C(=O)COCC(F)(F)F)CCO2)n1 (stereo unspecified),-12.9
